Test [1] has as its target T1, D3 (Homo sapiens, UniProt P35462).
T1 construct: purchased NIMH Psychoactive Drug Screening Program (PDSP)
Description: PDSP primary binding D3. The settings on record: 1.5 h; primary binding, 10,000 nM; last figure of the line = mean of the 4 before it; read-out: D3, PDSP raw data, mean. As for the experimental part:
(§1) To determine if any off-target receptor-binding effects are present, all the novel ligands were sent to the National Institute of Mental Health (NIMH), Psychoactive Drug Screening Program (PDSP). The ligands were screened over a panel of 47 receptors, ion channels, and transporters to determine any other possible interactions with […]. The hERG-binding was also determined. […] No binding of the test compounds to calcium channels was observed. […] It is necessary to screen the compounds for hERG-binding during the early process of drug discovery. The unintentional binding of many drugs to hERG can cause blockade of hERG K+ channels in the heart, which can cause many side effects including cardiac arrhythmias and sudden death. […] All of the α5 imidazodiazepines were tested for hERG-binding.
(§2) The NIMH PDSP assay protocol book [https://kidbdev.med.unc.edu/databases/PDSP%20Protocols%20II%202013-03-28.pdf accessed on 23 April 2023]. describes the protocols for primary and secondary radio-ligand binding assays. These assays were carried out in a final volume of 125 µL per well in the appropriate binding buffer.
(§3) The binding of a ligand to a receptor, ion channel, or transporter was determined in the […] of 10 µM of the appropriate reference compound. […] Plates were incubated in the dark for 90 min at rt, and the reactions were stopped by vacuum filtration onto 0.3% polyethyleneimine (PEI) soaked 96-well filter mats using a 96-well Filtermateharvester. This was followed by three washes with cold PBS buffer. Radioactivity was then counted on a Microbeta counter. Nonlinear regression was used to analyze the data with N = 6 replicates.

Test [2] addresses T2, Alpha1D (Homo sapiens, UniProt P25100).
T2 construct: purchased NIMH Psychoactive Drug Screening Program (PDSP)
T2 sequence (P25100 1-572): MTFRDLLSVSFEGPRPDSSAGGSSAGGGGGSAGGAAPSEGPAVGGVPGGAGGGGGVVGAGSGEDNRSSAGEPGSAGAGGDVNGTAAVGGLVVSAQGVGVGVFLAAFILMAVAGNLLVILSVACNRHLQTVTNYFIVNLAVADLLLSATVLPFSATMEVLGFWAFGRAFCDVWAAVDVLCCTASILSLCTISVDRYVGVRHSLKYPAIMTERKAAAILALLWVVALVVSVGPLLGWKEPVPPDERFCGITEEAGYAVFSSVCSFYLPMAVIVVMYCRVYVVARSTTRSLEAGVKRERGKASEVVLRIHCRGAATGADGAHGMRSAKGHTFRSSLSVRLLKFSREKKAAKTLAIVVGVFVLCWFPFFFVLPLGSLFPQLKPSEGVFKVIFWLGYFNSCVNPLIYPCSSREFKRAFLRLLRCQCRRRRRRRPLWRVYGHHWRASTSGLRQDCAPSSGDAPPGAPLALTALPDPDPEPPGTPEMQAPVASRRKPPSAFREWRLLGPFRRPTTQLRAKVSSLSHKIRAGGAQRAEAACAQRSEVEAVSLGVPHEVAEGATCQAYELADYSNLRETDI
The test can be described thus: PDSP primary binding Alpha1D. The settings on record: 1.5 h; primary binding, 10,000 nM; last figure of the line = mean of the 4 before it; read-out: Alpha1D, PDSP raw data, mean. As for the experimental part: as §1, §2, §3

Test [3] addresses T3, Alpha1B (Homo sapiens, UniProt P35368).
T3 construct: purchased NIMH Psychoactive Drug Screening Program (PDSP)
T3 sequence (P35368 1-520): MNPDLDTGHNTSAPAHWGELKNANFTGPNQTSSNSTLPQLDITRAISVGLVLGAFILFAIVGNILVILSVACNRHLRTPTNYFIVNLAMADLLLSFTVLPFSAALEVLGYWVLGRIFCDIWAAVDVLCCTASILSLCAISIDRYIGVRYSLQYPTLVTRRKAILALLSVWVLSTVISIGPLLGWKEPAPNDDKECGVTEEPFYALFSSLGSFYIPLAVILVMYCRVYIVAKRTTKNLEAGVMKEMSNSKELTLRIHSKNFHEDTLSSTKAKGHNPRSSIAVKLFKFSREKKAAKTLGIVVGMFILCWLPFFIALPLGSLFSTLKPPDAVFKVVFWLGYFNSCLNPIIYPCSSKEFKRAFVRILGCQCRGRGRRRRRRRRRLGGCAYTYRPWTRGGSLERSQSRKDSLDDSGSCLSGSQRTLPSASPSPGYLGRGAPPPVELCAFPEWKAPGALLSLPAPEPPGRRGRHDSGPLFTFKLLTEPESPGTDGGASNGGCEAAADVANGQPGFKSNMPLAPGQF
The test can be described thus: PDSP primary binding Alpha1B. The settings on record: 1.5 h; primary binding, 10,000 nM; last figure of the line = mean of the 4 before it; read-out: Alpha1B, PDSP raw data, mean. As for the experimental part: as §1, §2, §3

Test [4] has as its target T4, M1 (Homo sapiens, UniProt P11229).
T4 construct: purchased NIMH Psychoactive Drug Screening Program (PDSP)
T4 sequence (P11229 1-460): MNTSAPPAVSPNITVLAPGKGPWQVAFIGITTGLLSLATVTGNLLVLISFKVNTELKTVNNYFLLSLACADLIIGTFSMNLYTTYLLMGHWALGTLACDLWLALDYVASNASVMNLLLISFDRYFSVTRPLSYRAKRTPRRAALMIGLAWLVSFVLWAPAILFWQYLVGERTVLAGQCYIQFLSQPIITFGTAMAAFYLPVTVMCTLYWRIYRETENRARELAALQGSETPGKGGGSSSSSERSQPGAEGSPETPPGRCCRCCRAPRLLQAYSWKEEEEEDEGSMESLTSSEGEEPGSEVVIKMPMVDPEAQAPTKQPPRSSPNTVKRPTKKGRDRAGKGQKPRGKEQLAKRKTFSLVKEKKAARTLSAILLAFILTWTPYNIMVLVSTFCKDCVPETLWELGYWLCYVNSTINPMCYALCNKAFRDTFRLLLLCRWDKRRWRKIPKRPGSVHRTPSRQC
Description: PDSP primary binding M1. The settings on record: primary binding, 10,000 nM; last figure of the line = mean of the 4 before it; read-out: M1, PDSP raw data, mean. As for the experimental part:
as §1, §2, §3

Test [5] addresses BZP rat brain site. The test can be described thus: PDSP binding at BZP rat brain site. The settings on record: rat brain. As for the experimental part:
The BZR binding affinity of the test compounds was also measured using rat brain BzR. […] The efficacy of imidazodiazepines on the benzodiazepine receptor depends on various factors, including the specific subtype of the receptor they bind to, their chemical structure, and the dose.
as §2, §3

T1 sequence (P35462 whole entry): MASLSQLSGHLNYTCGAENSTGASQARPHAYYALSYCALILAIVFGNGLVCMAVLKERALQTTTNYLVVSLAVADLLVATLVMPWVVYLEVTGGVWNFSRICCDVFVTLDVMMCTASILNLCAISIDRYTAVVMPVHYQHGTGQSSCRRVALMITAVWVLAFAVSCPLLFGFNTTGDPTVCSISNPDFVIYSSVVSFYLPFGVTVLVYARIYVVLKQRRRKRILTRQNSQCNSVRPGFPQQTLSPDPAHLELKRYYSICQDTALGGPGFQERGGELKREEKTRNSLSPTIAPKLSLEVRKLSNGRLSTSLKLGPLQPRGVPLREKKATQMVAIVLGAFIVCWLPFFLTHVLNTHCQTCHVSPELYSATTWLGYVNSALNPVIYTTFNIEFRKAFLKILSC

On to `CCc1noc(-c2ncn3c2[C@@H](C)N=C(c2ccccc2F)c2cc(C4CC4)ccc2-3)n1` [Compound 46, (R)-5-(8-Cyclopropyl-6-(2′-fluorophenyl)-4-methyl-4H-benzo[f]imidazo[1,5-a][1,4]diazepin-3-yl)-3-ethyl-1,2,4-oxadiazole], for which the inhibition at 10 µM in test [1] came to 27.8%; in test [2] it was 34.9%; in test [3] it was 9.31%; in test [4] it was 0.86%. In test [5] (N = 2, read-out: Binding Affinity BZR Secondary Screening Ki), the Ki is 3.79 ± 0.632 µM. Further, the “Binding Affinity BZR % Inhibition (Primary)” value in test [5] (at 10,000 nM, N = 5) is reported as 65.25 ± 5.33%.

The values above are taken from PMC10303271, “Synthesis and Receptor Binding Studies of α5 GABAAR Selective Novel Imidazodiazepines Targeted for Psychiatric and Cognitive Disorders” (Molecules, 2023).
